Assay results: patent publication US5210077A, “Antibodies to cytokinins having a glycosylated isoprenoid side chain and immunoassay methods” (The United States of America as represented by the …, priority 1989, dated 1993)
Entries after “also recorded” stand apart in the source; their conditions may differ. Like-named read-outs stand apart in the source and are kept apart here.

Assays:
[1] = test system: monoclonal antibody ATCC HB 9658; test: Competition ELISA with HRP conjugate of 9-(2-carboxyethyl)zeatin-O-β-D-glucopyranoside and monoclonal antibody ATCC HB 9658; format: binding, mouse; details: for IC50: read-out: I50
Description: Competition ELISA using cytokinin conjugates of HRP was performed using polystyrene assay plates coated with mouse monoclonal antibodies specific for cytokinins. […] Immediately before use, assay plates were coated with 1 μg/mL of monoclonal IgG in BSA-PBS-Tween. Samples were mixed with an appropriate concentration of cytokinin-HRP conjugate and applied to assay wells in replicate (100 μL/well). After 1 h, wells were drained, washed, and rinsed. Bound conjugate was detected with ABTS substrate solution and quantified by determining absorbance at 415 nm. Calculations were performed as follows. Assay data was fit to a logistic model. Asymptotic values were determined by inspection of the assay curves, and other coefficients were determined by linear regression. […] Relative affinities are expressed using E-zeatin riboside or E-zeatin-O-β-D-glucopyranoside as standards.

[2] = test system: monoclonal antibody ATCC HB 9658; test: Inhibition ELISA, specificity of monoclonal antibody ATCC HB 9658; format: binding, mouse; details: for Relative I50 (relative to E-zeatin-O-β-D-glucopyranoside) / IC50: antibody ATCC HB 9658; for IC50: read-out: I50
Description: (§1) Antibodies were screened and further analyzed by solid-phase enzyme immunoassays as follows. Polyvinylchloride assay plates (Costar, Cambridge, MA), were coated with appropriate serum albumin conjugate (made with the O-glucoside derivative or the oxidized zeatin riboside, 10 μg/mL in PBS, 50 μL/well) for 4 h at room temperature or overnight at 4°. Plates were then washed with PBS containing 0.05% "Tween"-20 (PBS-Tween). Remaining sites were blocked by incubation for 1 h with 100 μL/well of 1% BSA in PBS-"Tween" solution (BSA-PBS-"Tween"). Plates were then rewashed and stored for up to 3 weeks at 4° in PBS containing sodium azide.
(§2) Direct binding (titration) and inhibition assays were performed with antibodies dissolved in BSA-PBS-"Tween", a diluent selected to minimize nonspecific interactions with the solid phase, and to suppress binding to the solid phase by antibodies specific for serum albumin.
Inhibition assay format was used to assess antibody specificity. […] In both formats, samples (50 μL/well) were generally applied to plates in triplicate and were incubated 1 h, with shaking. Plates were emptied, washed, rinsed with distilled water, and drained. HRP-labeled rabbit anti-mouse IgG (Zymed Laboratories, South San Francisco, CA) was added at an appropriate dilution (50 μL/well) and incubated for 1 h with shaking. The plates were then washed as before, and bound HRP detected by addition of 50 μL/well of substrate (1 mM ABTS and 6.7 mM H2 O2 in 60 mM sodium citrate buffer, pH 4.2). The absorbance was determined at 415 nm with a microplate reader (Model 308, Bio-Tek, Winooski, VT), generally after 15 min. In some cases, reactions were terminated by addition of 50 μL/well of 10% sodium dodecylsulfate.
Calculations were performed as follows. Assay data was fit to a logistic model. Asymptotic values were determined by inspection of the assay curves, and other coefficients were determined by linear regression. […] Relative affinities are expressed using E-zeatin riboside or E-zeatin-O-β-D-glucopyranoside as standards.

[3] = test system: mouse polyclonal antibodies; test: Inhibition ELISA for the mouse polyclonal antibodies; format: binding; details: for binding by the mouse polyclonal antibody (in words): inhibition ELISA; for Antibody Bound (%): inhibition ELISA with hapten, None = 100
Description: Mouse antibodies were elicited in BALB/c mice by two intraperitoneal inoculations at 3-week intervals with the bovine serum albumin conjugate of E-9-(2-carboxyethyl)zeatin-O-β-D-glucopyranoside emulsified in complete Freund's adjuvant. The dosage was 50-80 μg of conjugate in 0.1-0.2 mL. The mice were bled 1 week after the second injection, and sera were obtained, and tested for antibody.
as §1, §2
Inhibition assay format was used to assess antibody specificity. Antibody at an appropriate dilution determined by titration to give between 50 and 100% of maximal binding was mixed with hapten solution and preincubated for 1 h at room temperature prior to application to the coated wells. In both formats, samples (50 μL/well) were generally applied to plates in triplicate and were incubated 1 h, with shaking. Plates were emptied, washed, rinsed with distilled water, and drained. HRP-labeled rabbit anti-mouse IgG (Zymed Laboratories, South San Francisco, CA) was added at an appropriate dilution (50 μL/well) and incubated for 1 h with shaking. The plates were then washed as before, and bound HRP detected by addition of 50 μL/well of substrate (1 mM ABTS and 6.7 mM H2 O2 in 60 mM sodium citrate buffer, pH 4.2). The absorbance was determined at 415 nm with a microplate reader (Model 308, Bio-Tek, Winooski, VT), generally after 15 min. In some cases, reactions were terminated by addition of 50 μL/well of 10% sodium dodecylsulfate.

Structure (SMILES): CC(CO)CCNc1ncnc2nc[nH]c12 (racemic) [Dihydrozeatin, (RS)-dihydrozeatin]
- Relative I50 (relative to E-zeatin-O-β-D-glucopyranoside) [1]: > 4800
- IC50 [1]: > 100 µM
- Relative I50 (relative to E-zeatin-O-β-D-glucopyranoside) ([2]; inhibition ELISA): > 11000
- IC50 ([2]; inhibition ELISA): > 1000 µM

Structure (SMILES): C/C(=C\CNc1ncnc2c1ncn2[C@@H]1O[C@H](CO)[C@@H](O)[C@H]1O)CO [9-ribosylzeatin]
- binding by antibody of clone 240 / ATCC HB 9658 (in words) [2]: do not bind

Structure (SMILES): C/C(=C\CNc1ncnc2c1ncn2CCC(=O)O)CO[C@@H]1O[C@H](CO)[C@@H](O)[C@H](O)[C@H]1O [Carboxyethylzeatin-O-β-D-glucopyranoside, E-9-(2-carboxyethyl)zeatin-O-β-D-glucopyranoside]
- binding by the mouse polyclonal antibody (in words) [3]: binds
- Antibody Bound (%) [3]: 76 ± 1%

Structure (SMILES): C/C(=C\CNc1ncnc2[nH]cnc12)CO [E-Zeatin, E-zeatin]
- Relative I50 (relative to E-zeatin-O-β-D-glucopyranoside) [1]: > 4800
- IC50 [1]: > 100 µM
- binding by antibody of clone 240 / ATCC HB 9658 (in words) [2]: does not bind significantly; also recorded: do not bind
- binding reduced relative to zeatin-O-β-D-glucopyranoside ([2]; inhibition ELISA, FIG. 4): at least 10,000 fold
- Relative I50 (relative to E-zeatin-O-β-D-glucopyranoside) ([2]; inhibition ELISA): > 1100
- IC50 ([2]; inhibition ELISA): > 100 µM
- binding by the mouse polyclonal antibody (in words) [3]: do not bind
- Antibody Bound (%) [3]: 99 ± 3%

Structure (SMILES): C/C(=C\CNc1ncnc2c1ncn2[C@@H]1O[C@H](CO)[C@@H](O)[C@H](O)[C@H]1O)CO [E-Zeatin-9-β-D-glucopyranoside]
- Relative I50 (relative to E-zeatin-O-β-D-glucopyranoside) [1]: > 48000
- IC50 [1]: > 1000 µM
- binding by antibody of clone 240 / ATCC HB 9658 (in words) [2]: do not bind
- Relative I50 (relative to E-zeatin-O-β-D-glucopyranoside) ([2]; inhibition ELISA): > 1100
- IC50 ([2]; inhibition ELISA): > 100 µM

Structure (SMILES): CC(=CCNc1ncnc2[nH]cnc12)COC1OC(CO)C(O)C(O)C1O [E-Zeatin-O-β-D-glucopyranoside, E-zeatin-O-β-D-glucopyranoside]
- Relative I50 (relative to E-zeatin-O-β-D-glucopyranoside) [1]: 1
- IC50 [1]: 0.021 µM
- Relative I50 (relative to E-zeatin-O-β-D-glucopyranoside) ([2]; inhibition ELISA): 1
- IC50 ([2]; inhibition ELISA): 0.087 µM
- binding by antibody of clone 240 / ATCC HB 9658 (in words) ([2]; listed as E-zeatin-O-β-D-glucopyranoside): bind
- binding by antibody of clone 240 / ATCC HB 9658 (in words) ([2]; listed as zeatin-O-β-D-glucopyranoside): binds

Structure (SMILES): CC(C)=CCNc1ncnc2nc[nH]c12 [Isopentenyladenine, N^6-2-isopentenyladenine]
- Relative I50 (relative to E-zeatin-O-β-D-glucopyranoside) [1]: > 4800
- IC50 [1]: > 100 µM
- Relative I50 (relative to E-zeatin-O-β-D-glucopyranoside) ([2]; inhibition ELISA): > 11000
- IC50 ([2]; inhibition ELISA): > 1000 µM

Structure (SMILES): C/C(=C\CNc1ncnc2c1ncn2[C@@H]1O[C@H](CO)[C@@H](O)[C@H]1O)CO[C@@H]1O[C@H](CO)[C@@H](O)[C@H](O)[C@H]1O [O-β-D-Glucopyranosyl-E-zeatin-9-riboside]
- Relative I50 (relative to E-zeatin-O-β-D-glucopyranoside) [1]: 1.7
- IC50 [1]: 0.035 µM
- Relative I50 (relative to E-zeatin-O-β-D-glucopyranoside) ([2]; inhibition ELISA): 3.4
- IC50 ([2]; inhibition ELISA): 0.3 µM

Structure (SMILES): C/C(=C\CN1C(=O)c2ccccc2C1=O)CO[C@@H]1O[C@H](CO)[C@@H](O)[C@H](O)[C@H]1O [PBG, E-2-methyl-4-phthalimidobut-2-enyl-β-D-glucopyranoside]
- Relative I50 (relative to E-zeatin-O-β-D-glucopyranoside) [1]: 23
- IC50 [1]: 0.49 µM
- Relative I50 (relative to E-zeatin-O-β-D-glucopyranoside) ([2]; inhibition ELISA): 14
- IC50 ([2]; inhibition ELISA): 1.2 µM

Structure (SMILES): CO[C@@H]1O[C@H](CO)[C@@H](O)[C@H](O)[C@H]1O [β-Methylglucoside, β-methyl-D-glucopyranoside]
- Relative I50 (relative to E-zeatin-O-β-D-glucopyranoside) [1]: > 48000
- IC50 [1]: > 1000 µM
